Legend:
C57BL/6 mice = experiment: In vivo adjuvanticity with ovalbumin as model antigen; set-up: species or system mouse; conditions: OVA 20 μg + compound 200 nmol i.m. days 0 and 21, day 28
Protocol: FIGS. 1A-1D. Intracellular Ca^2+ influx screening of 84 HTS hit candidate compounds. (A) THP-1 cells were loaded with the ratiometric Ca^2+ indicator, Fura-2, and treated with lonomycin (ION, 1 μM), Thapsigargin (1 μM), or 84 hit candidate compounds (10 μM) for 25 minutes. Data are presented as the area under the curve (AUG) of OD340/380 ratios corresponding to the intracellular Ca^2+ kinetics. The baseline-subtracted AUG was calculated using GraphPad Prism (GraphPad Software, San Diego, CA). (B) Ca^2+ mobilization by compound #634. mBMDCs were loaded with the ratiometric Ca^2+ indicator, Fura-8, and treated with ION (1 μM), or #634 (2 and 10 μM) for 25 minutes. The dashed line indicates the timing of compounds added. […] OVA-specific IgGI and IgG2c levels in sera were determined by ELISA. **p<0.01, ***p<0.001, ns (not significant) by KruskalWallis tests with Dunn's post hoc test vs. Veh. […]
Eighty-four hit candidate compounds were also screened for in vivo adjuvant activities using C57BL/6 mice and model antigen ovalbumin (OVA). […] Sera were collected on day 28, and OVA-specific immunoglobulins IgG1 and IgG2c were determined by ELISA (FIG. 1D).
The selected 80 compounds were first evaluated for purity and identity by HPLC-MS and compounds which were less than 90% pure were purified by Prep-HPLC. These were then evaluated for vaccine adjuvant activity in mice using a model antigen, ovalbumin (OVA). […]

mBMDCs = experiment: Cell viability / cytotoxicity in mBMDCs (MTT); format: cell-based, mouse; conditions: 10 μM
Protocol: FIGS. 30A-30B. […] After 48 hours incubation, cell viability was determined by MTT assay.
mBMDCs (10^5 cells/200 μL/well) were treated with 10 and 5 μM of a test compound in 96-well plates overnight. After 18 hours of drug treatment, MTT (0.5 mg/ml) was added to each well. The cells were lysed after 6-8 hours incubation, and absorbance values at 570 and 650 nm were measured. PrestoBlue reagent (#A13261, Thermo Fisher Scientific) was used for cell viability assay in CD63 HTS as described earlier.
Cell viability assay. mBMDCs (2×10^6 cells/200 μL/well in RPMI1640 supplemented with dialyzed 10% FBS, or 1.5×10^6 cells/200 μL/well in RPMI1640 supplemented with 10% exosome depleted FBS) were treated with 10 μM of each test compound in 96-well plates. After 46-48 hours of compound treatment, MTT (0.5 mg/mL) was added to each well. The cells were lysed after overnight incubation, and absorbance values at 570 and 650 nm were measured.

Row | Structure (SMILES) | Anti-OVA IgG1 level in sera (C57BL/6 mice) | Anti-OVA IgG2c level in sera (C57BL/6 mice) | toxicity to mBMDC (mBMDCs)
1 | CCOC(=O)c1c(NS(=O)(=O)c2cccc3c2N=S=N3)sc(C)c1C [#634, ethyl 2-(benzo[c][1,2,5]thiadiazole-4-sulfonamido)-4,5-dimethylthiophene-3-carboxylate] | appeared to be higher than the levels from animals immunized without adjuvant, although there were no significant differences | appeared to be higher than the levels from animals immunized without adjuvant, although there were no significant differences | 
2 | CCOC(=O)c1c(NS(=O)(=O)c2cccc3nsnc23)sc(C)c1C [compound 634, Ethyl 2-(benzo[c][1,2,5]thiadiazole-4-sulfonamido)-4,5-dimethylthiophene-3-carboxylate] |  |  | non-toxic
